The compound `Cc1ccc(S(=O)(=O)NCC(=O)NCc2ccc(C(c3cc(F)ccc3F)S(=O)(=O)c3ccc(Cl)cc3)nc2)cc1` (stereo not shown) [Example 70, N-[[6-[(4-Chlorophenylsulfonyl)(2,5-difluorophenyl)methyl]pyridin-3-yl]methyl]-2-(4-methylphenylsulfonylamino)acetamide] showed a melting point of 217 to 218 °C. The value for `CN(C)CC(=O)NCc1ccc(C(c2cc(F)ccc2F)S(=O)(=O)c2ccc(Cl)cc2)nc1` (stereo not shown) [Example 71, N-[[6-[(4-Chlorophenylsulfonyl)(2,5-difluorophenyl)methyl]pyridin-3-yl]methyl]-2-dimethylaminoacetamide] was 177 to 179 °C; that for `O=S(=O)(c1ccc(Cl)cc1)C(c1cc(F)ccc1F)c1ncc(CO)cc1F` (stereo not shown) [Example 125, [6-(4-Chlorophenylsulfonyl)(2,5-difluorophenyl)methyl-5-fluoropyridin-3-yl]methanol] was 181 to 183 °C. `O=C(O)c1cnc(C(c2cc(F)ccc2F)S(=O)(=O)c2ccc(Cl)cc2)c(F)c1` (stereo not shown) [Example 127, 6-(4-Chlorophenylsulfonyl)(2,5-difluorophenyl)methyl-5-fluoronicotinic acid] had a melting point of 249 to 251 °C. `O=C(Nc1nccs1)c1cnc(C(c2cc(F)ccc2F)S(=O)(=O)c2ccc(Cl)cc2)c(F)c1` (stereo not shown) [Example 128, 6-(4-Chlorophenylsulfonyl)(2,5-difluorophenyl)methyl-5-fluoro-N-thiazol-2-ylnicotinamide] had a melting point of 243 to 245 °C. The value for `O=C(Nc1ccon1)c1cnc(C(c2cc(F)ccc2F)S(=O)(=O)c2ccc(Cl)cc2)c(F)c1` (stereo not shown) [Example 129, 6-(4-Chlorophenylsulfonyl)(2,5-difluorophenyl)methyl-5-fluoro-N-isoxazol-3-ylnicotinamide] was 200 to 202 °C; that for `O=C(O)CCc1cnc(C(c2cc(F)ccc2F)S(=O)(=O)c2ccc(Cl)cc2)c(F)c1` (stereo not shown) [Example 133, 3-[6-(4-Chlorophenylsulfonyl)(2,5-difluorophenyl)methyl-5-fluoropyridin-3-yl]propionic acid] was 174 to 176 °C. `O=C(O)/C=C/c1ccc(C(c2cc(F)ccc2F)S(=O)(=O)c2ccc(Cl)cc2)nc1` (stereo not shown) [Example 135, (E)-3-[6-[(4-Chlorophenylsulfonyl)(2,5-difluorophenyl)methyl]pyridin-3-yl]acrylic acid]: the melting point was 236 to 238 °C. The value for `NC(=O)/C=C/c1ccc(C(c2cc(F)ccc2F)S(=O)(=O)c2ccc(Cl)cc2)nc1` (stereo not shown) [Example 136, (E)-3-[6-[(4-Chlorophenylsulfonyl)(2,5-difluorophenyl)methyl]pyridin-3-yl]acrylamide] was 219 to 220 °C. With `O=C(NCCO)c1ccc(C(c2cc(F)ccc2F)S(=O)(=O)c2ccc(Cl)cc2)nc1` (stereo not shown) [Example 140, 6-[(4-Chlorophenylsulfonyl)(2,5-difluorophenyl)methyl]-N-(2-hydroxyethyl)nicotinamide] the figure was 179 to 181 °C; with `O=C(O)c1cccc(C(c2cc(F)ccc2F)S(=O)(=O)c2ccc(Cl)cc2)n1` (stereo not shown) [Example 146, 6-[(4-Chlorophenylsulfonyl)(2,5-difluorophenyl)methyl]picolinic acid], 200 to 201 °C; with `Nc1cccc(C(c2cc(F)ccc2F)S(=O)(=O)c2ccc(Cl)cc2)n1` (stereo not shown) [Example 149, 6-[(4-Chlorophenylsulfonyl)(2,5-difluorophenyl)methyl]pyridin-2-ylamine], 183 to 184 °C. The value for `O=S(=O)(c1ccc(Cl)cc1)C(c1cccc(CCc2ccccn2)n1)c1cc(F)ccc1F` (stereo not shown) [Example 152, 2-[(4-Chlorophenylsulfonyl)(2,5-difluorophenyl)methyl]-6-(2-pyridin-2-ylethyl)pyridine] was 88 to 89 °C. For `O=C1C(C(c2cc(F)ccc2F)S(=O)(=O)c2ccc(Cl)cc2)CCCN1CCCO` (stereo not shown) [Example 153, 3-[(4-Chlorophenylsulfonyl)(2,5-difluorophenyl)methyl]-1-(3-hydroxypropyl)piperidin-2-one], the melting point is 120 to 121 °C. The value for `O=C1CCCN1CCCNc1cc(C(c2cc(F)ccc2F)S(=O)(=O)c2ccc(Cl)cc2)c(Cl)cn1` (stereo not shown) [Example 169, 1-[3-[[5-Chloro-4-[(4-chlorophenylsulfonyl)-(2,5-difluorophenyl)methyl]pyridin-2-yl]amino]propyl]pyrrolidin-2-one] was 78 to 80 °C; that for `CC(=O)NCCCNc1cc(C(c2cc(F)ccc2F)S(=O)(=O)c2ccc(Cl)cc2)c(Cl)cn1` (stereo not shown) [Example 174, N-[3-[[5-Chloro-4-[(4-chlorophenylsulfonyl)-(2,5-difluorophenyl)methyl]pyridin-2-yl]amino]propyl]acetamide] was 103 to 105 °C. The value for `O=S(=O)(c1ccc(Cl)cc1)C(c1cc(F)ccc1F)c1cc(NCCCNc2ncccn2)ncc1Cl` (stereo not shown) [Example 175, N-[5-Chloro-4-[(4-chlorophenylsulfonyl)-(2,5-difluorophenyl)methyl]pyridin-2-yl]-N′-(pyrimidin-2-yl)propane-1,3-diamine] was 176 to 178 °C; that for `Fc1ccc(SC(c2cc(F)ccc2F)c2cc(Cl)ncc2Cl)cc1` (stereo not shown) [Example 177, 2,5-Dichloro-4-[(2,5-difluorophenyl)-(4-fluorophenylthio)methyl]pyridine] was 95 to 97 °C; that for `O=S(=O)(c1ccc(F)cc1)C(c1cc(F)ccc1F)c1cc(NCCO)ncc1Cl` (stereo not shown) [Example 179, 2-[[5-Chloro-4-[(2,5-difluorophenyl)-(4-fluorophenylsulfonyl)methyl]pyridin-2-yl]amino]ethanol] was 157 to 158 °C. `O=S(=O)(c1ccc(Cl)cc1)C(c1cc(F)ccc1F)c1cc(NCCc2ccncc2)ncc1Cl` (stereo not shown) [Example 181, 5-Chloro-4-[(4-chlorophenylsulfonyl)(2,5-difluorophenyl)methyl]-2-[2-(pyridin-4-yl)ethylamino]pyridine] displayed a melting point of 148 to 150 °C. With `O=S(=O)(c1ccc(Cl)cc1)C(c1cc(F)ccc1F)c1cc(NCCOCCO)ncc1Cl` (stereo not shown) [Example 183, 2-[2-[5-Chloro-4-[(4-chlorophenylsulfonyl)(2,5-difluorophenyl)methyl]pyridin-2-ylamino]ethoxy]ethanol] the figure was 113 to 115 °C. With `COCCCNc1cc(C(c2cc(F)ccc2F)S(=O)(=O)c2ccc(Cl)cc2)c(Cl)cn1` (stereo not shown) [Example 184] the figure was 146 to 148 °C; with `COc1ccc(CNc2cc(C(c3cc(F)ccc3F)S(=O)(=O)c3ccc(Cl)cc3)c(Cl)cn2)cc1OC` (stereo not shown) [Example 186, 5-Chloro-4-[(4-chlorophenylsulfonyl)(2,5-difluorophenyl)methyl]-2-(3,4-dimethoxybenzylamino)pyridine], 204 to 206 °C. As for `O=S(=O)(c1ccc(Cl)cc1)C(c1cc(F)ccc1F)c1cc(NCc2ccncc2)ncc1Cl` (stereo not shown) [Example 188, 5-Chloro-4-[(4-chlorophenylsulfonyl)(2,5-difluorophenyl)methyl]-2-[(pyridin-4-ylmethyl)amino]pyridine], the melting point lay within 141 to 142 °C.

Regarding `CS(=O)(=O)NCCCNc1cc(C(c2cc(F)ccc2F)S(=O)(=O)c2ccc(Cl)cc2)c(Cl)cn1` (stereo not shown) [Example 189, N-[3-[[5-Chloro-4-[(4-chlorophenylsulfonyl)-(2,5-difluorophenyl)methyl]pyridin-2-yl]amino]propyl]methanesulfonamide], the melting point lay within 138 to 139 °C.

`O=C1NCCCN1c1cc(C(c2cc(F)ccc2F)S(=O)(=O)c2ccc(Cl)cc2)c(Cl)cn1` (stereo not shown) [Example 190, 1-[5-Chloro-4-[(4-chlorophenylsulfonyl)-(2,5-difluorophenyl)methyl]pyridin-2-yl]tetrahydropyrimidin-2-one] had a melting point of over 230 °C. With `CC(C)(CO)CNc1cc(C(c2cc(F)ccc2F)S(=O)(=O)c2ccc(Cl)cc2)c(Cl)cn1` (stereo not shown) [Example 195, 3-[5-Chloro-4-[(4-chlorophenylsulfonyl)(2,5-difluorophenyl)methyl]pyridin-2-ylamino]-2,2-dimethylpropan-1-ol] the figure was 176 to 178 °C; with `O=C(O)c1cc(C(c2cc(F)ccc2F)S(=O)(=O)c2ccc(Cl)cc2)c(F)cn1` (stereo not shown) [Example 201, 4-[(4-Chlorophenylsulfonyl)(2,5-difluorophenyl)methyl]-5-fluoropicolinic acid], 208 to 209 °C; with `CS(=O)(=O)Nc1cc(C(c2cc(F)ccc2F)S(=O)(=O)c2ccc(Cl)cc2)c(F)cn1` (stereo not shown) [Example 204, N-[4-[(4-Chlorophenylsulfonyl)(2,5-difluorophenyl)methyl]-5-fluoropyridin-2-yl]methanesulfonamide], 217 to 219 °C. In turn, `Cc1cnc(CO)cc1C(c1cc(F)ccc1F)S(=O)(=O)c1ccc(Cl)cc1` (stereo not shown) [Example 207, [4-[(4-Chlorophenylsulfonyl)(2,5-difluorophenyl)methyl]-5-methylpyridin-2-yl]methanol] gave a melting point of 196 to 198 °C.

In turn, `Cc1cnc(C(=O)O)cc1C(c1cc(F)ccc1F)S(=O)(=O)c1ccc(Cl)cc1` (stereo not shown) [Example 209, 4-[(4-Chlorophenylsulfonyl)(2,5-difluorophenyl)methyl]-5-methylpicolinic acid] gave a melting point of 105 to 107 °C. `Cc1cnc(NS(C)(=O)=O)cc1C(c1cc(F)ccc1F)S(=O)(=O)c1ccc(Cl)cc1` (stereo not shown) [Example 212, N-[4-[(4-Chlorophenylsulfonyl)(2,5-difluorophenyl)methyl]-5-methylpyridin-2-yl]methanesulfonamide] yielded a melting point of 214 to 217 °C. The value for `COc1ccc(CNc2cc(C(c3cc(F)ccc3F)S(=O)(=O)c3ccc(F)cc3)c(Cl)cn2)cc1OC` (stereo not shown) [Example 214, [5-Chloro-4-[(2,5-difluorophenyl)-(4-fluorophenylsulfonyl)methyl]pyridin-2-yl](3,4-dimethoxybenzyl)amine] was 158 to 159 °C; that for `O=S(=O)(c1ccc(Cl)cc1)C(c1cc(F)ccc1F)c1cc(CO)ncc1Br` (stereo not shown) [Example 228, [5-Bromo-4-[(4-chlorophenylsulfonyl)(2,5-difluorophenyl)methyl]pyridin-2-yl]methanol] was 172 to 173 °C.

Source of the values: patent US7932271B2, “Heterocyclic methyl sulfone derivative” (Daiichi Pharmaceutical Co., Ltd., priority 2003, dated 2011).
